From patent US20260250640A1, “NOVEL COMPOSITIONS AND THEIR USE TO INCREASE MOTILITY, VIABILITY AND LIFESPAN OF SPERM CELLS AND FERTILITY” (IMV TECHNOLOGIES, priority 2023, published 2026)

System: bull semen
Procedure: • a 2.4 mM BaCl2 solution in OptiXcell was prepared, • 1 mL of this solution was resuspended in a 5 mg vial of DMNP-EDTA, • 1.5 mL of DMNP-EDTA were added for a final DMNP-EDTA concentration of 2.6 mM, • The solution was kept away from light, • The solution was contacted with semen in different chelator/semen ratios: • 1:1=>500 μL chelators+500 μL bull semen at 57 Mspz/mL • 1:0.75=>500 μL chelators+375 μL bull semen at 57 Mspz/mL • 1:0.5=>500 μL chelators+250 μL bull semen at 57 Mspz/mL • 1:0.25=>500 μL chelators+125 μL bull semen at 57 Mspz/mL • A BaCl2 solution only: 500 μL BaCl2 at 2.4 mM+500 μL bull semen at 57 Mspz/mL was prepared • The following analyses have been performed on frozen bull semen: • Mobility analysis on IVOS II™ at T=0 and T3H 37° C., • Acrosome integrity analysis on EasyCyte at T=0 and T3H 37° C., • Viability analysis on EasyCyte at T=0 and T3H 37° C. • Mitochondrial activity analysis on EasyCyte at T=0 and T3H 37° C.
The control corresponds to OptiXcell alone.

Compound | sperm viability (T=3H 37° C.) | impact on viability | sperm viability, difference vs. Control | impact on mobility (T0 and T3H 37° C., conclusion) | sperm motility, difference vs control (OptiXcell alone) (T=3H 37° C., 1/1 chelator/semen) | sperm motility (presence of chelator (BaCl2/DMNP-EDTA solution in OptiXcell), T=0 and T3H 37° C.)
[Ba+2].[Cl-].[Cl-] [BaCl2] | remained unchanged |  |  |  |  | 
COc1cc(C(CN(CC(=O)O)CC(=O)O)N(CC(=O)O)CC(=O)O)c([N+](=O)[O-])cc1OC (stereo not drawn) [chelator, DMNP-EDTA] |  | No major impact | +13 pts | No major impact | +9 pts | not affected
